Assay results published in patent US20110217715A1, “GENE EXPRESSION IN DUCHENNE MUSCULAR DYSTROPHY” (CHILDREN'S HOSPITAL MEDICAL CENTER, priority 2008, published 2011).

System: mRNA expression in peripheral blood of individuals with DMD
Assay: Whole-blood gene expression microarray: DMD administered prednisone or deflazacort vs DMD not administered steroid
Type: in vivo, human
Method: Fifteen ml of blood was collected from each individual into 6 PAXgene® Vacutainer® tubes (PreAnalytiX, Germany) by antecubital fossa venipuncture. PAXgene® tubes contain a proprietary reagent that immediately stabilizes RNA, thus reducing RNA degradation and minimizing gene expression changes following phlebotomy. The tubes were then inverted 20 times, then remained undisturbed for 2 h at room temperature (about 19° C. to about 22° C.), and then stored at -70° C. until processed. Total RNA was isolated using the Paxgene® blood RNA kit (PreAnalytiX, Germany) according to the manufacturers instructions. The RNA isolated is from all cells in whole blood. […] Sample labeling, hybridization to chips, and image scanning were performed using standard Affymetrix protocols. For each whole blood sample from control individuals and individuals with DMD, total RNA was labeled using the One-Cycle Target Labeling protocol and hybridized to the arrays. […] Double-stranded cDNA synthesis, biotin-labeled cRNA synthesis, and cRNA fragmentation were performed according to the Affymetrix GeneChip Eukaryotic Expression Analysis protocol. […] After hybridization, the array was washed and stained. […] After scanning the array, the raw probe level values for each probe were saved in Affymetrix.cel files. […] Statistical analyses, including t-test analyses, unsupervised hierarchical clustering, and principal component analyses were conducted using Genespring 7.2 software ([…]® 7, Silicon Genetics, Redwood City Calif.). […] Corrections for multiple comparisons used a Benjamini-Hochberg False Discovery Rate (FDR) of 0.05, disclosed in Tang et al., J Cereb Blood Flow Metab 26 (2006) 1089, which is expressly incorporated by reference herein in its entirety. […] Individuals with DMD were evaluated and had been diagnosed by a single board-certified pediatric neurologist. The diagnosis of DMD was based in part upon clinical history, examination findings, and selected muscle biopsies and was confirmed by molecular diagnostic testing. […] Sample processing and array hybridization, probe-level data analysis, and statistical analysis were identical to Example 1.

[1] = DMD administered deflazacort or prednisone vs not administered

**Q.** How did the “expression levels of FKBP5” value [1] turn out when `CC(=O)OCC(=O)[C@@]12N=C(C)O[C@@H]1C[C@H]1[C@@H]3CCC4=CC(=O)C=C[C@]4(C)[C@H]3[C@@H](O)C[C@@]12C` [deflazacort] was run?
**A.** The value was “up-regulated”.

**Q.** And the “expression levels of genes in the chondroitin sulfate biosynthesis pathway” value [1]?
**A.** The value was “up-regulated”.

**Q.** And the “expression levels of haptoglobin and CD163 nucleic acids” value [1]?
**A.** Its value is “up-regulated”.

**Q.** What about the “expression levels of lactotransferrin and lipocalin” value [1] of the same molecule?
**A.** The value was “increased expression levels”.

**Q.** And the “expression of KFL10” value (individuals administered prednisone, deflazacort, or both vs DMD not administered any agent)?
**A.** The value was “up-regulated”.
